The source of these data is US5545625A, “Preventing conversion of citrulline to argininosuccinate to limit pathological nitric oxide overproduction” (The Medical College of Wisconsin Research Foundation, Inc., priority 1994, dated 1996).

The test system of assay [1] is nitric oxide synthase. Description: Nitric oxide synthase (NOS) activity of cytosol of rat aortic smooth muscle cells induced with LPS/interferon-gamma in presence of test agent (Example I). The class given is cell-based. The conditions noted are these: mithramycin 0.001 to 10 μg/ml with LPS 30 μg/ml plus interferon-gamma 50 ng/ml, 24 hours; FIG. 1. As for the experimental part: Aortic smooth muscle cells were cultured by explanting segments of the medial layer of aortae from adult male Fischer 344 rats. Aortae were removed aseptically and freed of adventitial and endothelial cells by scraping both the lumenal and abluminal surfaces. Medial fragments (1-2 mm) were allowed to attach to dry Primaria 25 cm^2 tissue culture flasks (Falcon; Oxnard, Calif.) which were kept moist with growth medium until cells emerged. Cultures were fed twice weekly with medium 199 containing 10% fetal bovine serum, 25 mM HEPES, 2 mM L-glutamine, 40 μg/ml endothelial cell growth supplement (Biomedical Technologies; Stoughton, Mass.) and 10 μg/ml gentamycin (GIBCO; Grand Island, N.Y.). When primary cultures became confluent, they were passaged by trypsinization and the explants were discarded. Cells in passage 10-15 were seeded at 20,000/well in 96-well plates. […]
Nitric oxide formation by smooth muscle cell cytosol was measured using a spectrophotometric kinetic microplate assay based on the increase in A405 accompanying the oxidation of Fe^2+ -myoglobin by nitric oxide. […] Assays were performed in triplicate with A405 recorded for each sample every 18 seconds for a period of 15 minutes. The rate of nitric oxide synthesis was calculated from the rate of increase in A405 by linear regression analysis. […]

The test system of assay [2] is patient with Gram negative septicemia. Description: Blood pressure in septicemia patient given N^G -methyl-L-arginine plus test agent (Examples X, XVI). The conditions noted are these: N^G -methyl-L-arginine 20 mg/kg bolus then 10 mg/kg/hr, plus mithramycin 25 μg/kg intravenously over 3-6 hours. It is filed as in vivo, human. Here is the method:
A patient with Gram negative septicemia and blood pressure of 80/55 mm Hg is administered N^G -methyl-L-arginine in a bolus dose of 20 mg/kg intravenously in saline and thereafter is given a sustained infusion of N^G -methyl-L-arginine at a dosage of 10 mg/kg/hr. Mithramycin (25 μg/kg) is given intravenously in 50 ml saline over 3-6 hours starting at the time of the bolus dose of N^G -methyl-L-arginine. […] The patient is released after 2 days.
A patient with a Gram negative septicemia and blood pressure of 80/55 mm Hg is administered N^G -methyl-L-arginine in a bolus dose of 20 mg/kg intravenously in saline and thereafter is given a sustained infusion of N^G -methyl-L-arginine at a dose of 10 mg/kg/hr. N^ω -Methyl-L-citrulline (40 mg/kg) is given intravenously in 50 ml saline over 3-6 hours starting at the time of the bolus dose of N^G -methyl-L-arginine.

For assay [3], the system named is human treated with interleukin-2. Description: Hypotension during interleukin-2 treatment for renal cell cancer (Examples VIII, XIV). Particulars: interleukin-2 1×10^6 units, 5 days; mithramycin 25 μg/kg intravenously as pretreatment and at 24 hour intervals. The class given is in vivo. Here is the method: A human is treated for renal cell cancer with interleukin-2 (1×10^6 units) for 5 days. By the fifth day, the patient's blood pressure falls to 80/55 mm Hg and the patient encounters nausea and extreme discomfort. Three weeks later, the patient returns for a second course of interleukin-2 treatment but is pretreated (before commencing interleukin-2 infusion) with mithramycin (25 μg/kg) and is treated at 24 hour intervals thereafter with 25 μg/kg of mithramycin. The mithramycin is administered intravenously in 50 ml saline over a 3 to 6 hour interval.
A human is treated for renal cell cancer with interleukin-2 (1×10^6) for 5 days. Simultaneously with commencing interleukin-2 infusion, L-thiocitrulline (10 mg/kg/day) is administered.

For assay [4], the system named is Sprague-Dawley rats. In words: Air pouch inflammatory model with croton oil (Examples XII, XVIII). Particulars: mithramycin 25 μg/kg intraperitoneally, repeated at 24 hour intervals; end of 5 days; versus rats without drug. It is filed as in vivo, rat.

Consider `COC(C(=O)C(O)C(C)O)C1Cc2cc3cc(OC4CC(OC5CC(O)C(O)C(C)O5)C(O)C(C)O4)c(C)c(O)c3c(O)c2C(=O)C1OC1CC(OC2CC(OC3CC(C)(O)C(O)C(C)O3)C(O)C(C)O2)C(O)C(C)O1` (centres unmarked) [mithramycin], for which, in assay [1], the “nitric oxide synthase activity” value is reported as “blocks argininosuccinate synthetase activity as well as nitric oxide synthase activity”. In addition, in assay [2], the blood pressure result was “becomes normotensive within minutes of administration of the bolus dose of N^G -methyl-L-arginine and the normotensive state is sustained”. The development of hypotension result in assay [3] is listed as “hypotension does not develop”. In assay [4], the inflammation result was “less inflammation” and the “nitrite in the fluid exudate of the lesion” value is “significantly less nitrite”.
